The record followed here is PubChem BioAssay (NCI).

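Following 48 hours of exposure in 96-well plates, responses at five concentrations were used to interpolate endpoints linearly. Here, GI50 denotes the concentration required for 50% inhibition of growth. TGI is the concentration that stops growth completely.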

Common to all, as to assay: NCI tumour cell line growth inhibition, 48 h
Assay [1] deals with 786-0 renal.
Assay [2] deals with SN12C renal.
Assay [3] relates to OVCAR-5 ovarian.
Assay [4] has as its system UACC-62 melanoma.
The test system of assay [5] is HCC-2998 colon.
The test system of assay [6] is NCI-H23 lung.
The test system of assay [7] is K-562 leukemia.
Assay [8] concerns MCF7 breast.
Assay [9] relates to MDA-MB-231 breast.
Assay [10] relates to HS 578T breast.

In the case of `O=c1ncccn1C1OC(CO)C(O)C1O` (configuration not stated), the TGI in [1], in assay [2], in [3], in assay [4], in assay [5] and in assay [6] was greater than 100 µM throughout. This molecule gave a TGI in [7] greater than 100 µM.
Consider `c1ccc2c(c1)oc1ccc3nsnc3c12`, for which the TGI in assay [1], in assay [3], in assay [4], in [5], in assay [6] and in assay [7] was greater than 100 µM in each case.
Turning to `O=C(O)CCNCCCCNCCC(=O)O`, the TGI in assay [1], in assay [2], in assay [3], in [4], in assay [5] and in [6] was greater than 100 µM each time. The TGI in assay [7] was greater than 100 µM.
`c1ccc2c(c1)SCCCSCCSCCCS2`: the TGI in [1], in [2], in assay [3], in assay [4], in [8] and in [9] was greater than 100 µM each time. The TGI in assay [5], in assay [6] and in assay [7] was greater than 100 µM each time.
Turning to `C=CCC1=C(C)C[C@@H]2CCC(=O)C=C12`, the TGI in assay [1], in assay [2], in assay [3], in assay [4], in assay [6] and in [7] was greater than 100 µM each time.
On to `CC(C)CCCC(C)[C@H]1CCC2[C@@H]3CCC4Nc5c(cnn5-c5ccccc5)C[C@]4(C)C3CC[C@@]21C` (some centres not stated), for which the TGI in [1] was greater than 100 µM; in assay [2], greater than 100 µM; in assay [3], greater than 100 µM; in assay [4], 40.4 µM; in assay [5] it was greater than 100 µM; in assay [6] it was greater than 100 µM. In assay [7], the TGI is greater than 100 µM.
Take `C=CCO/N=C(\OC(=O)c1ccc([N+](=O)[O-])cc1)c1ccccc1`: the TGI in [1], in assay [2], in assay [3], in [4], in assay [5] and in [6] was greater than 100 µM in each case. In addition, in assay [7], the TGI was greater than 100 µM.
With `C[Si](C)(C)/C=C\CCO`, the TGI in assay [1], in [2], in assay [3], in assay [4], in assay [5] and in assay [6] was greater than 100 µM throughout. Also, in [7], the TGI was greater than 100 µM.
On to `O=S(=O)(NCn1ccc2ccccc21)c1ccccc1`, for which the TGI in assay [1], in [2], in [3], in assay [4], in assay [5] and in assay [6] was greater than 100 µM each time. This molecule registered a TGI in [7] greater than 100 µM.
On to `Cc1ccc(S(=O)(=O)c2ccccc2[N+](=O)[O-])cc1`, for which the TGI in assay [1], in assay [3], in assay [4], in assay [5], in assay [6] and in assay [7] was greater than 100 µM in each case.
Regarding `Cc1cc(N(CCC#N)CCC#N)ccc1N=Nc1ccc(Br)cc1`, the TGI is 38.3 µM in assay [1]; greater than 54.8 µM in assay [2]; greater than 100 µM in assay [3]; greater than 87.2 µM in [4]; greater than 79.3 µM in assay [5]; greater than 51.3 µM in assay [6]. This molecule also had a TGI in assay [7] greater than 100 µM.
For `COC(=O)CC(NC(=O)OCc1ccccc1)C(C(=O)OCc1ccccc1)C(C)(OC)OC` (configuration not stated), the TGI in assay [1] was greater than 100 µM; in [2] it was greater than 100 µM; in assay [4], 42.3 µM; in assay [5] it was greater than 100 µM; in assay [6], 74.7 µM; in assay [7] it was greater than 100 µM.
As for `CC(=O)[O-].[Mn+3].[O-]c1ccccc1C=NCCNCCN=Cc1ccccc1[O-]`, the GI50 in assay [1], in [2], in [4], in [6] and in assay [7] was greater than 100 µM in each case. Further, the TGI in [1], in [2], in [4], in assay [6] and in [7] was greater than 100 µM throughout.
With `Cc1ccc(N=Nc2c(O)ccc3ccccc23)cc1`, the TGI in assay [1], in assay [2], in [3], in assay [4], in assay [9] and in assay [10] was greater than 100 µM each time. The TGI in assay [6] is greater than 100 µM.
For `O=C1/C(=C/c2ccccc2)CN(C(=O)CCN2CCCC2)C/C1=C\c1ccccc1`, the TGI in assay [1] worked out at 1.94 µM; in assay [2], 3.16 µM; in assay [3], 7.7 µM; in [4], 3.45 µM; in assay [8] it was 2.63 µM; in [9], 3.78 µM. Further, the results for the TGI in assay [5], in assay [6] and in assay [7] were 3.22 µM, 4.35 µM and 4.69 µM, respectively.
As for `COC(=O)c1c2c(cc3c1CC1(Cc4cc5c(c(C(C)=O)c4C1)CCC5)C3)CCC2` (configuration not stated), the TGI in assay [1], in assay [2], in [3], in assay [4], in assay [5] and in [6] was greater than 100 µM each time. For the same molecule, the TGI in assay [7] was greater than 100 µM.
Take `COc1ccc(CCc2cc(OC)cc(OC)c2)cc1`: the TGI is greater than 100 µM in assay [1]; greater than 100 µM in assay [2]; greater than 100 µM in assay [3]; greater than 100 µM in [4]; 51.2 µM in [5]; greater than 100 µM in [6]. Moreover, in [7], the TGI was determined as 71.8 µM.
In the case of `COc1ccc(C(=O)C(CC2C(=O)NC(=O)NC2=O)c2ccc(OC)cc2)cc1` (configuration not stated), the TGI in [1], in assay [2], in [3], in assay [4], in [5] and in assay [6] was greater than 100 µM each time. Besides, the TGI in [7] was greater than 100 µM.
Take `N.N.N.N.N.O=[N+]([O-])[O-].[Co+3].[O-][Cl+3]([O-])([O-])[O-]`: the GI50 in assay [1], in [2], in [3], in assay [4], in [5] and in assay [6] was greater than 100 µM throughout. Further, the GI50 in assay [7] was greater than 100 µM. The TGI in assay [1], in assay [2], in assay [3], in [4], in assay [5] and in assay [6] was greater than 100 µM each time. Also, the TGI in assay [7] is greater than 100 µM.
For the molecule `C[C@]12CC[C@H](O)CC1=CC[C@@H]1C2CC[C@]2(C)Nc3c(cnn3-c3ccccc3)CC12` (some centres not stated), the TGI is 7.16 µM in [1]; 17.3 µM in [3]; 17.4 µM in [4]; 22.3 µM in assay [5]; 63 µM in assay [6]; 10.2 µM in assay [7].
For the molecule `CCOC(=O)N1CCc2cc(OC)c(OC)cc2/C1=C\c1ccc(OC)c(OC)c1`, the TGI in assay [1] is 52.1 µM; in assay [2], greater than 100 µM; in [3], greater than 100 µM; in assay [4], 63.4 µM; in assay [5], greater than 100 µM; in assay [6] it was greater than 100 µM. The same molecule came in with a TGI in assay [7] greater than 10 µM.
As for `CCCC(=O)N[C@H]1C2C3CC4C5CC(C42)C1(C)C53` (some centres not stated), the TGI in [1], in assay [2], in [3], in assay [4], in assay [5] and in [7] was greater than 100 µM throughout.
For `c1ccc2c(-c3nc(-c4c[nH]c5ccncc45)cs3)c[nH]c2c1`, the GI50 in assay [1] is 1.89 µM; in [2], 1.67 µM; in assay [3], 2.59 µM; in [4], 1.67 µM; in assay [8] it was 1.43 µM; in assay [9] it was 1.06 µM. Besides, the GI50 in assay [5] was 1.87 µM; in [6], 1.85 µM; in assay [7], 2.05 µM. Also, the TGI in assay [1] was found to be 3.44 µM; in assay [2], 3.35 µM; in [3], 6.63 µM; in assay [4], 3.33 µM; in [8] it was 3.16 µM; in assay [9], 2.53 µM. In addition, the TGI worked out at 3.42 µM in assay [5], 5 µM in assay [6] and 5.29 µM in assay [7].
Regarding `Cc1cccc(C)c1NC(=O)CCc1nc(=S)[nH][nH]1`, the TGI in assay [1], in assay [2], in assay [3], in assay [4], in assay [5] and in assay [6] was greater than 100 µM throughout. In [7], this molecule gave a TGI greater than 100 µM.
Regarding `CC(=O)O[C@]1(C)OC(=O)[C@@H](CC(C)C)N1[N+](=O)[O-]`, the TGI in [1], in assay [2], in assay [3], in assay [4], in assay [5] and in [6] was greater than 100 µM each time. Besides, the TGI in assay [7] was greater than 100 µM.
`CC1CCSC(N(C(=O)N(C)c2ccccc2)c2ccccc2)=N1` (configuration not stated): the TGI in [1], in [2], in assay [3], in assay [4], in assay [5] and in [6] was greater than 100 µM each time. This molecule also gave a TGI in assay [7] greater than 100 µM.
Turning to `NCCOCCOCCNc1nc(-c2ccc(Cl)cc2)nc(N2CCN(c3ccccn3)CC2)n1`, the GI50 was 1.83 µM in assay [1]; 6.17 µM in assay [2]; 2.32 µM in assay [3]; 1.99 µM in assay [4]; 2.55 µM in [9]; 1.75 µM in assay [5]. Further, the GI50 in assay [10] is 1.92 µM; in [6] it was 1.86 µM. The TGI in assay [1] turned out to be 3.61 µM; in assay [2], 20.8 µM; in assay [3] it was 5.11 µM; in assay [4], 3.91 µM; in assay [9], 6.01 µM; in [5] it was 3.29 µM. Further, the values for the TGI in [10] and in assay [6] were 4.6 µM and 3.83 µM, respectively.
Regarding `Cc1c(NC(=S)NC(=O)c2ccc([N+](=O)[O-])cc2)c(=O)n(-c2ccccc2)n1C`, the TGI in [1], in assay [2], in assay [3], in assay [4], in [5] and in [6] was greater than 100 µM throughout. For the same molecule, the TGI in assay [7] is greater than 100 µM.
Take `CC(C)OP(=O)(OC(C)C)/C(N)=N/Nc1ccc([N+](=O)[O-])cc1`: the TGI in [1], in assay [2], in [3], in assay [4], in assay [5] and in assay [6] was greater than 100 µM each time. The molecule also returned a TGI in assay [7] greater than 100 µM.
As for `CCOC(=O)CCn1ncc(Cl)c(Cl)c1=O`, the TGI in assay [1] turned out to be 34.7 µM; in [2] it was 29.3 µM; in assay [3], 32.1 µM; in assay [4], 19.2 µM; in assay [5], 10.4 µM; in [6], 4.66 µM. In addition, the TGI in [7] is 8.52 µM.
With `C#Cc1c(C)c(/C=C/C(C)=C/C(=O)OC)n(C)c1C`, the TGI in assay [1], in assay [2], in assay [3], in [4], in assay [5] and in assay [6] was greater than 100 µM each time. In [7], this molecule yielded a TGI greater than 100 µM.
As to `CN1CCc2c1nc(-c1ccc(Cl)cc1)c1c2N(C)CC1`, the TGI in [1] was greater than 100 µM; in assay [2], 71.1 µM; in [3] it was 73.3 µM; in [4] it was 25.7 µM; in assay [5] it was 65 µM; in [6], 49.9 µM. In assay [7], the TGI turned out to be 62.1 µM.
